The values below come from patent US20180291043A1, “BENZOCYCLOOCTENE-BASED AND INDENE-BASED ANTICANCER AGENTS” (BAYLOR UNIVERSITY, priority 2016, published 2018).

The GI50 is the concentration that inhibits growth by half. A word on the IC50: it is the concentration that inhibits the measured activity by half.

For one assay, the system named is NCI-H460. As to conditions: Data from Devkota et. al., 2016; read-out: GI50 (μM) SRB assay NCI-H460; cited from earlier work. (Sulforhodamine B stains cellular protein and so reports cell mass.)
A further assay deals with SK-OV-3. As to conditions: Data from Devkota et. al., 2016; read-out: GI50 (μM) SRB assay SK-OV-3; cited from earlier work.
Another assay deals with tubulin. As to the kind of experiment: Colchicine binding assay (inhibition of [3H]colchicine binding to tubulin). The following applies: inhibitor at 1 μM. The procedure:
Inhibition of [^3H]colchicine binding to tubulin was measured using reaction mixtures (100 μL each) containing 1.0 μM tubulin, 5.0 μM [^3H]colchicine (from Perkin-Elmer), 5% (v/v) dimethyl sulfoxide, […], and components that stabilize the colchicine binding activity of tubulin (Hamel et al., 1981) (1.0 M monosodium glutamate [adjusted to pH 6.6 with HCl in a 2.0 M stock solution], 0.5 mg/mL bovine serum albumin, 0.1 M glucose-1-phosphate, 1.0 mM MgCl2, and 1.0 mM GTP). […] Reactions were stopped with 2.0 mL of ice-cold water, and the reaction mixtures were placed on ice. Each sample was poured onto a stack of two DEAE-cellulose filters (from Whatman), followed by 6 mL of ice-cold water. The samples were aspirated under reduced vacuum. The filters were washed three times with 2 mL water and placed into vials containing 5 mL of Biosafe II scintillation cocktail. Samples were counted 18 h later in a Beckman scintillation counter. Samples with inhibitors were compared to samples with no inhibitor, and percent inhibition was determined. All samples were corrected for the amount of radiolabel bound to the filters in the absence of tubulin.

For assay [1], the system named is purified bovine brain tubulin. As to conditions: Data from Pettit et al., 2000; read-out: Inhibition of tubulin polymerization IC50 (μM) ± SD; cited from earlier work.
Another assay relates to DU-145. As to conditions: Data from Devkota et. al., 2016; read-out: GI50 (μM) SRB assay DU-145; cited from earlier work.

Consider `COc1ccc(/C=C\c2cc(OC)c(OC)c(OC)c2)cc1O` [CA4], for which the results for the 50% growth inhibitory concentration (GI50) in the assay with NCI-H460, in the assay with SK-OV-3 and with DU-145 were 0.005 µM, 0.00506 µM and 0.00602 µM, respectively. Also, in the assay with tubulin, the “% Inhibition of colchicine binding ± SD” value is reported as […]. Besides, the 50% inhibitory concentration (IC50) in assay [1] is […].
